According to PubChem BioAssay (NCI):
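Where inhibition never reached the appropriate level, the endpoint shown equals the highest concentration tested. Otherwise, values were interpolated linearly from a five-concentration, 48-hour dose response in 96-well plates. Abbreviation: GI50, concentration required for 50% inhibition of growth. TGI: total growth inhibition.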

Key:
Assay in all cases: NCI tumour cell line growth inhibition, 48 h
DU-145 prostate = tested on: DU-145 prostate
SK-MEL-5 melanoma = tested on: SK-MEL-5 melanoma
OVCAR-4 ovarian = tested on: OVCAR-4 ovarian
HCT-15 colon = tested on: HCT-15 colon
COLO 205 colon = tested on: COLO 205 colon
RXF 393 renal = tested on: RXF 393 renal
KM12 colon = tested on: KM12 colon
MOLT-4 leukemia = tested on: MOLT-4 leukemia
UACC-62 melanoma = tested on: UACC-62 melanoma
SK-MEL-28 melanoma = tested on: SK-MEL-28 melanoma

## CN(c1ccccc1)c1c2ccccc2nc2[nH]c3ccccc3c12
DU-145 prostate
  GI50: 1.44 µM
  TGI: 8.76 µM
SK-MEL-5 melanoma
  GI50: 1.62 µM
  TGI: 3.56 µM
OVCAR-4 ovarian
  GI50: 4.42 µM
  TGI: > 48.7 µM
HCT-15 colon
  GI50: 2.73 µM
  TGI: > 31.9 µM
COLO 205 colon
  GI50: 3.45 µM
  TGI: 16.1 µM
RXF 393 renal
  GI50: 2.11 µM
  TGI: 38.7 µM
KM12 colon
  GI50: 2.24 µM
  TGI: 7.4 µM
MOLT-4 leukemia
  GI50: 0.841 µM
  TGI: > 29.6 µM
UACC-62 melanoma
  GI50: 1.5 µM
  TGI: 4.21 µM
SK-MEL-28 melanoma
  GI50: 2.08 µM
  TGI: 7.42 µM

## OCc1ccc(N2CCc3ccc(F)cc3C2)cc1Cl
DU-145 prostate
  GI50: 7.06 µM
  TGI: 21.2 µM
SK-MEL-5 melanoma
  GI50: 0.856 µM
  TGI: 20 µM
OVCAR-4 ovarian
  GI50: 0.0799 µM
  TGI: 0.772 µM
HCT-15 colon
  GI50: 2.82 µM
  TGI: 18.8 µM
COLO 205 colon
  GI50: 0.121 µM
  TGI: 0.36 µM
RXF 393 renal
  GI50: 0.373 µM
  TGI: 12.1 µM
KM12 colon
  GI50: 10.5 µM
  TGI: 26 µM
MOLT-4 leukemia
  GI50: 4.48 µM
  TGI: 30.5 µM
UACC-62 melanoma
  GI50: 0.0405 µM
  TGI: 0.248 µM
SK-MEL-28 melanoma
  GI50: 13.1 µM
  TGI: 26.1 µM

## Cn1cc(-c2ccc3c(c2)ncn3-c2cc(NS(=O)(=O)C3CC3)cc(-c3ccc(F)cc3F)c2)cn1
DU-145 prostate
  GI50: 21.2 µM
  TGI: > 100 µM
SK-MEL-5 melanoma
  GI50: 13.1 µM
  TGI: 32 µM
OVCAR-4 ovarian
  GI50: 3.45 µM
  TGI: > 100 µM
HCT-15 colon
  GI50: 7.4 µM
  TGI: > 100 µM
COLO 205 colon
  GI50: 24.8 µM
  TGI: > 100 µM
RXF 393 renal
  GI50: 1.53 µM
  TGI: 8.17 µM
KM12 colon
  GI50: 4.96 µM
  TGI: > 100 µM
MOLT-4 leukemia
  GI50: 2.8 µM
  TGI: > 100 µM
UACC-62 melanoma
  GI50: 25.5 µM
  TGI: 73.1 µM
SK-MEL-28 melanoma
  GI50: 20.9 µM
  TGI: > 100 µM

## Cc1ccc(-c2nc([P+](c3ccccc3)(c3ccccc3)c3ccccc3)c(N3CCOCC3)o2)cc1
DU-145 prostate
  GI50: 0.472 µM
  TGI: 10.9 µM
SK-MEL-5 melanoma
  GI50: 0.314 µM
  TGI: 1.03 µM
OVCAR-4 ovarian
  GI50: 0.281 µM
  TGI: 3.03 µM
HCT-15 colon
  GI50: 3.09 µM
  TGI: 12.1 µM
COLO 205 colon
  GI50: 0.343 µM
  TGI: 1.68 µM
RXF 393 renal
  GI50: 0.706 µM
  TGI: 4.25 µM
KM12 colon
  GI50: 0.368 µM
  TGI: 1.82 µM
MOLT-4 leukemia
  GI50: 0.499 µM
  TGI: 3.27 µM
UACC-62 melanoma
  GI50: 0.35 µM
  TGI: 1.45 µM
SK-MEL-28 melanoma
  GI50: 0.515 µM
  TGI: 9.18 µM

## CCCCCCCCCCCCOC1C(C(COC2OC(C(O)CO)C3OC(C)(C)OC23)OC(=O)Nc2ccccc2)OC2OC(C)(C)OC21 (stereo not given)
DU-145 prostate
  GI50: 10 µM
  TGI: 22.8 µM
SK-MEL-5 melanoma
  GI50: 8.55 µM
  TGI: 25.6 µM
OVCAR-4 ovarian
  GI50: 5.85 µM
  TGI: 17.8 µM
HCT-15 colon
  GI50: 4.5 µM
  TGI: 16.1 µM
COLO 205 colon
  GI50: 5.51 µM
  TGI: 16.6 µM
RXF 393 renal
  GI50: 4.33 µM
  TGI: 12.6 µM
KM12 colon
  GI50: 2.99 µM
  TGI: 8.76 µM
MOLT-4 leukemia
  GI50: 0.127 µM
  TGI: 5.14 µM
UACC-62 melanoma
  GI50: 10.5 µM
  TGI: 22.5 µM
SK-MEL-28 melanoma
  GI50: 7.24 µM
  TGI: 19.3 µM

## CC1=C(C(=O)Nc2ccc3[nH]ncc3c2)C(c2ccc(F)cc2)N=C(c2ccc(C(F)(F)F)nc2)N1 (stereo not given)
DU-145 prostate
  GI50: > 25 µM
  TGI: > 25 µM
SK-MEL-5 melanoma
  GI50: 7.45 µM
  TGI: > 25 µM
OVCAR-4 ovarian
  GI50: 12.4 µM
  TGI: > 25 µM
HCT-15 colon
  GI50: 16.2 µM
  TGI: > 25 µM
COLO 205 colon
  GI50: > 25 µM
  TGI: > 25 µM
RXF 393 renal
  GI50: 4.31 µM
  TGI: > 23.5 µM
KM12 colon
  GI50: 16.3 µM
  TGI: > 25 µM
MOLT-4 leukemia
  GI50: 11.9 µM
  TGI: > 25 µM
UACC-62 melanoma
  GI50: 10.1 µM
  TGI: > 25 µM
SK-MEL-28 melanoma
  GI50: > 19.9 µM
  TGI: > 25 µM

## COc1ccc(Cn2c(Br)c3c(c2-c2cc(OC)c(OC)c(OC)c2)CCc2sc(N)nc2-3)cc1
DU-145 prostate
  GI50: 2.04 µM
  TGI: 7.43 µM
SK-MEL-5 melanoma
  GI50: 1.6 µM
  TGI: 13.5 µM
OVCAR-4 ovarian
  GI50: 2.5 µM
  TGI: > 57.3 µM
HCT-15 colon
  GI50: 1.05 µM
  TGI: > 48.7 µM
COLO 205 colon
  GI50: 1.07 µM
  TGI: 3.7 µM
RXF 393 renal
  GI50: 0.448 µM
  TGI: 14.8 µM
KM12 colon
  GI50: 1.18 µM
  TGI: > 30 µM
MOLT-4 leukemia
  GI50: 1.51 µM
  TGI: > 29.7 µM
UACC-62 melanoma
  GI50: 0.598 µM
  TGI: 15 µM
SK-MEL-28 melanoma
  GI50: 4.76 µM
  TGI: 33.6 µM
